Here are results for two compounds from PMC4076210, “Discovery of Novel AKT Inhibitors with Enhanced Anti-Tumor Effects in Combination with the MEK Inhibitor” (PLoS ONE, 2014).

For one data set, the system named is BT474 cells. As to the kind of experiment: Cell cycle analysis. The data set is classed as cell-based, human. The following applies: BT474, evident at 1 µM. How it is done: (§1) Cells were plated in 96 well plates at a density of 3000-5000 cells/well and allowed to adhere overnight. Cells were treated with DMSO or various concentrations of drug for 72 h, fixed and stained with propidium iodide to stain nuclei (Vindelov, 1982). Cells were analyzed in a flow cytometer (FACSCalibur; BD Biosciences, Franklin Lakes, NJ) and the fraction of cells in each phase of cell cycle was determined using the cell cycle analysis platform contained within the FlowJo software (Tree Star, Ashland, OR).

The subject of another data set is I9.2 cells. Nature of the data set: Cell cycle analysis. The data set is classed as cell-based, human. As to conditions: I9.2, 1 µM. How it is done:
as §1

In a further data set the test system is LNCaP cells. Nature of the data set: Cell cycle analysis. The data set is classed as cell-based, human. The following applies: various concentrations. How it is done: as §1
A further data set deals with A3 cells. As to the kind of experiment: Cell cycle analysis. It counts as cell-based, human. The following applies: A3, 1 µM. How it is done: as §1
The test system of another data set is CAPAN-2 tumor xenografts. Nature of the data set: Xenograft tumor growth inhibition, combination with MEK inhibitor. The data set is classed as in vivo, mouse. The following applies: 30 mg/kg, day 69. How it is done: (§2) Tumors were initiated by injecting either cells (SKOV3, CAPAN-2 and HPAC) or a tumor fragments (BT474) subcutaneously into 6–8 week female athymic nude (SKOV3) and SCID (all others) mice. Once tumors reached between 120 and 300 mm^3, mice were randomized according to tumor volume into groups of n = 7–10 mice per treatment. GSK2110183 and GSK2141795 were administered daily at various doses by oral gavage. In combination experiments, GSK1120212 was also administered daily by oral gavage. Tumor volumes and body weight were measured twice weekly, tumor volume was measured with calipers and calculated using equation: […]. Results are represented as percent inhibition on completion of dosing = 100 x [1- average growth of drug-treated population/average growth of vehicle-treated control population].

In a further data set the test system is HPAC tumor xenografts. The description is as above. The data set is classed as in vivo, mouse. The following applies: 30 mg/kg daily, day 42. How it is done: as §2
The test system of data set [1] is FOXO_GFP translocation in MDA-MB-468. As to the kind of experiment: FOXO3A-GFP translocation assay. The data set is classed as cell-based, human. The following applies: MDA-MB-468, 1 h, mean ± std dev.
Method: MDA-MB-468 cells stably transfected with FOXO3A-GFP were plated at 1000 cells/96 well and allowed to adhere overnight. Cells were treated with DMSO or AKT inhibitor (0-10 µM) for 1 h. Plates were centrifuged at 1200 rpm for 10 min, and the medium aspirated. Cells were fixed with 200 μL of 4% paraformaldehyde (Alfa Aesar, Wood Hill, MA), and DAPI (80 ng/mL, Roche, Branchburg, NJ) was added to each well and incubated for 20 min at room temperature. […] Five fields per well were imaged to achieve ≥250 nuclei count per well. A ratio of nuclear to cytoplasmic intensity was calculated by the software. The formula used to calculate percentage nuclear translocation = (Fluorescence sample- Fluorescence DMSO)/ (Fluorescence 10 µM treatment sample- Fluorescence DMSO)*100. The calculation produces a scale of 0-100% with 100% being 10 µM of compound treatment and 0 being DMSO treatment. The normalized values were then plotted in the XLFit 4 parameter curve fitting program to generate EC50 values.
The target in the next data set is T1, PKBβ(h) (Homo sapiens, UniProt P31751).
T1 construct: purchased Millipore KinaseProfiler
T1 sequence (P31751 whole entry): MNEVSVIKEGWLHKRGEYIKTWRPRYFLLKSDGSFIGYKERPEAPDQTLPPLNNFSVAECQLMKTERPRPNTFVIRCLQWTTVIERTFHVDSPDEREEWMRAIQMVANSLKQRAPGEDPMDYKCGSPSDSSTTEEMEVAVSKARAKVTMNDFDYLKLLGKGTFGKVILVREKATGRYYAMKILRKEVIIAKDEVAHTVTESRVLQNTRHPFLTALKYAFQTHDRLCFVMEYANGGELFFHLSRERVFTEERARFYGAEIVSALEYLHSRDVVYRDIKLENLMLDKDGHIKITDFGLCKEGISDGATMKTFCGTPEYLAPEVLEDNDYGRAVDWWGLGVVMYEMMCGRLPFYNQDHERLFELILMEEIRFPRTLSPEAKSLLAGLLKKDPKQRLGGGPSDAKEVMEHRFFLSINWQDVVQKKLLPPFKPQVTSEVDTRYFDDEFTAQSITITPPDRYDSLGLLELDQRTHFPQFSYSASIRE
As to the kind of experiment: Kinase panel. It counts as biochemical.

A further data set concerns the target T2, CLK2(h) (Homo sapiens, UniProt P49760).
T2 construct: purchased Millipore KinaseProfiler
As to the kind of experiment: Kinase panel. It counts as biochemical.

The target of another data set is T3, CLK3(h) (Homo sapiens, UniProt P49761).
T3 construct: purchased Millipore KinaseProfiler
T3 sequence (P49761 whole entry): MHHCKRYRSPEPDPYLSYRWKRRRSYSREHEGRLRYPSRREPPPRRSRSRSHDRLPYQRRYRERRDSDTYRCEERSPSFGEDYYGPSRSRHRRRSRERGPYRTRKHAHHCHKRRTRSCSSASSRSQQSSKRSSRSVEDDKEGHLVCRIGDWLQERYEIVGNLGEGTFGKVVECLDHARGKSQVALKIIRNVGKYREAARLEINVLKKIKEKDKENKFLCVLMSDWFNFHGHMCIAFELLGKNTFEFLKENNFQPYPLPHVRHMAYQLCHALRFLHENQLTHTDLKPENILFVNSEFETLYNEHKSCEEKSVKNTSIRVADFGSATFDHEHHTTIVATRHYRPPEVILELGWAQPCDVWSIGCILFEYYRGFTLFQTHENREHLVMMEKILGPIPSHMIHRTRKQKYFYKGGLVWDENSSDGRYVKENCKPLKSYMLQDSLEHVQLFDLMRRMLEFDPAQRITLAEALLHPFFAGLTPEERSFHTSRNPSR
Nature of the data set: Kinase panel. It counts as biochemical.

Another data set addresses T4, TSSK1(h) (Homo sapiens, UniProt Q9BXA7).
T4 construct: purchased Millipore KinaseProfiler
T4 sequence (Q9BXA7 1-367): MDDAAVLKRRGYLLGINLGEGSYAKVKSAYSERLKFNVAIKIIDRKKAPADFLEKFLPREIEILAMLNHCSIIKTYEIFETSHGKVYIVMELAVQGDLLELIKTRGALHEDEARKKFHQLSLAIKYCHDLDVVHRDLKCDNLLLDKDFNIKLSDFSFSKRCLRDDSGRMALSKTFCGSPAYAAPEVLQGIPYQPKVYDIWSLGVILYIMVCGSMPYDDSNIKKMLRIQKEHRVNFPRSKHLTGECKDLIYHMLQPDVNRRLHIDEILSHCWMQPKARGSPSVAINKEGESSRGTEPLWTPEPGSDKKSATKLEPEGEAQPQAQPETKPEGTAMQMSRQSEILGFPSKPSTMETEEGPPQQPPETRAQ
As to the kind of experiment: Kinase panel. The data set is classed as biochemical.

For a further data set, the target named is T5, Abl(m) (Mus musculus, UniProt P00520).
T5 construct: purchased Millipore KinaseProfiler
T5 sequence (P00520 27-1123 limits assumed): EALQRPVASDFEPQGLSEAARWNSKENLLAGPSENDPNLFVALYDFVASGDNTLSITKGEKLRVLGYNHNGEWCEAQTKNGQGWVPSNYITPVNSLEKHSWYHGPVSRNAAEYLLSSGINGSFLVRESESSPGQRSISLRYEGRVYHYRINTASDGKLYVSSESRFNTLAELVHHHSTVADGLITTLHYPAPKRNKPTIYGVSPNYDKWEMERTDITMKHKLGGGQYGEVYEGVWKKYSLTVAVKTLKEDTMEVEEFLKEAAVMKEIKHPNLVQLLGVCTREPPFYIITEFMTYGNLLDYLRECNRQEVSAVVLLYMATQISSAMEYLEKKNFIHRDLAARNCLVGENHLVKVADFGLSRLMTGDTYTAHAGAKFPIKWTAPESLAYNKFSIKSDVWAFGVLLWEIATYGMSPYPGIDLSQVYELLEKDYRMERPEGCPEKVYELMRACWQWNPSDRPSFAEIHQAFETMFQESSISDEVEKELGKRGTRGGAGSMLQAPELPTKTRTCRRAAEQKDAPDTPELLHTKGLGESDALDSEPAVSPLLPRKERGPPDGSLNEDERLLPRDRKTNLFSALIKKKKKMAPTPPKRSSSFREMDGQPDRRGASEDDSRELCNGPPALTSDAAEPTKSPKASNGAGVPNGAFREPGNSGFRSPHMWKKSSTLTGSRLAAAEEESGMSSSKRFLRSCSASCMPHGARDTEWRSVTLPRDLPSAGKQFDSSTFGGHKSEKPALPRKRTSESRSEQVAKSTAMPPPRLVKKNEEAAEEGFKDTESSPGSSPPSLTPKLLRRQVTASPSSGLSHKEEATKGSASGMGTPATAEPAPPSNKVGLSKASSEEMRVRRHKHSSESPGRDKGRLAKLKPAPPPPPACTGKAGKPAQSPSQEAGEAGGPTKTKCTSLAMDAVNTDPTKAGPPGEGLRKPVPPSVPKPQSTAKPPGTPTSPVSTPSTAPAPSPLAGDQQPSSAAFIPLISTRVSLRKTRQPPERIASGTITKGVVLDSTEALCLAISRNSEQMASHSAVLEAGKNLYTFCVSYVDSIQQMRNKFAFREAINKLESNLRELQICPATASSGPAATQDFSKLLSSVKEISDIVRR
As to the kind of experiment: Kinase panel. It counts as biochemical.

Data set [2] in a line: Compound concentration in blood and tumor (HPLC/MS/MS). The data set is classed as in vivo, mouse.
Method: Concentration of the test compounds in the tissue and blood was analyzed using protein precipitation with acetonitrile, followed by HPLC/MS/MS analysis using positive ion atmospheric pressure chemical ionization or Turbo ionspray ionization (API 4000 or API 5000, Applied Biosystems).
The pharmacodynamic studies were carried out in SCID mice bearing BT474 tumor xenografts. […] Concentration of the test compounds was analysed by HPLC/MS/MS analysis.
The target in another data set is T6, PKBα(h) (Homo sapiens, UniProt P31749).
T6 construct: purchased Millipore KinaseProfiler
T6 sequence (P31749 whole entry): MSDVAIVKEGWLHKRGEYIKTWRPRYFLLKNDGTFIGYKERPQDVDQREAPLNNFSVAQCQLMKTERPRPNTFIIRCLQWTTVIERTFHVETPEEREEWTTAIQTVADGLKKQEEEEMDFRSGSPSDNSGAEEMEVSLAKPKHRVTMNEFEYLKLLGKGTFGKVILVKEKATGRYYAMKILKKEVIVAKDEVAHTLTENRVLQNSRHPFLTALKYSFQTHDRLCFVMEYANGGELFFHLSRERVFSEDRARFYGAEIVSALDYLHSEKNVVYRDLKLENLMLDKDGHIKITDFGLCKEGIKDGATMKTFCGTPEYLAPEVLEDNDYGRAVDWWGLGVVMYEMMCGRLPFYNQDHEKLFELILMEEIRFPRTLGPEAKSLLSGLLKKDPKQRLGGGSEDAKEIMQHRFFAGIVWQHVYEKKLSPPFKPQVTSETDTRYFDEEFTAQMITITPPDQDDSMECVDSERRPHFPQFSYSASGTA
Nature of the data set: Kinase panel. The data set is classed as biochemical.

The target in the next data set is T7, PKBγ(h) (Homo sapiens, UniProt Q9Y243).
T7 construct: purchased Millipore KinaseProfiler
T7 sequence (Q9Y243 whole entry): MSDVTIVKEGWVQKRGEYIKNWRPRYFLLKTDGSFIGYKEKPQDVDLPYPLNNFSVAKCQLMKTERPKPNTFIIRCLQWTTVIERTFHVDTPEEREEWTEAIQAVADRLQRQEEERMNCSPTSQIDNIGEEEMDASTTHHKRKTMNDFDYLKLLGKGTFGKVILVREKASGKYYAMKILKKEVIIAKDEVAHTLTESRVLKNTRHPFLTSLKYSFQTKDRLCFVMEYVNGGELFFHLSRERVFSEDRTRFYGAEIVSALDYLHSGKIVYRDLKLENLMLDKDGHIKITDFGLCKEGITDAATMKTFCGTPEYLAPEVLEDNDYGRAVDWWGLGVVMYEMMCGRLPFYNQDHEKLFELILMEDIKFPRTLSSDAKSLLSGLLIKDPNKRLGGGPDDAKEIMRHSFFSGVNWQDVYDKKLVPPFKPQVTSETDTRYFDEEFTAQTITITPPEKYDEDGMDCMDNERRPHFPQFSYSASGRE
Nature of the data set: Kinase panel. It counts as biochemical.

Another data set concerns cancer patients. As to conditions: unselected patient population; cited from earlier work.
The next data set concerns the target PKCβ1 (Homo sapiens, UniProt P05771). As to the kind of experiment: Kinase IC50 assay. It counts as biochemical.
The target of a further data set is PKCβ2 (Homo sapiens, UniProt P05771). As to the kind of experiment: Kinase IC50 assay. It counts as biochemical.
Chain of PKCβ2 (P05771 1-673 isoform P05771-2): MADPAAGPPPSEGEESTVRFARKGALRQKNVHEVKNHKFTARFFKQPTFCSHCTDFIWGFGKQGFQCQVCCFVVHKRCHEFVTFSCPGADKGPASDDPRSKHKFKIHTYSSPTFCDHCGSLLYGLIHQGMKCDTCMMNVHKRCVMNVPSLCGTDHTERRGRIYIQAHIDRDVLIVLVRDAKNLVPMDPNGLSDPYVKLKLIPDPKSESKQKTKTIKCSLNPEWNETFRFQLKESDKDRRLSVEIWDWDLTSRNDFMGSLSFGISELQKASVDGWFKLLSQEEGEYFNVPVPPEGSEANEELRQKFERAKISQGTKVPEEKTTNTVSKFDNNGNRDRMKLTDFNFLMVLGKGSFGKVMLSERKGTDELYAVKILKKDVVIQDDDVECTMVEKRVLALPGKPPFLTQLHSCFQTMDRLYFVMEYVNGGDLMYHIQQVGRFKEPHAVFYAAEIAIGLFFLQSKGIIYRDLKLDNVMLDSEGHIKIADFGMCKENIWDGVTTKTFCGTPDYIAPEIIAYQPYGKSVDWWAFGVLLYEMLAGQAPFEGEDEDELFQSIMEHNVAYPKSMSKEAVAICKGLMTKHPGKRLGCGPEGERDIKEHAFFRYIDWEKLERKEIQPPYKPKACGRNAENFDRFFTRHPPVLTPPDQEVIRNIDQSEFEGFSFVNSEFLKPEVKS

“And” between values parts separate entries of the source, which are not always exact repeats. Identical values can stand only once. Like-named read-outs stand apart in the source and are kept apart here.

T2 sequence (P49760 whole entry): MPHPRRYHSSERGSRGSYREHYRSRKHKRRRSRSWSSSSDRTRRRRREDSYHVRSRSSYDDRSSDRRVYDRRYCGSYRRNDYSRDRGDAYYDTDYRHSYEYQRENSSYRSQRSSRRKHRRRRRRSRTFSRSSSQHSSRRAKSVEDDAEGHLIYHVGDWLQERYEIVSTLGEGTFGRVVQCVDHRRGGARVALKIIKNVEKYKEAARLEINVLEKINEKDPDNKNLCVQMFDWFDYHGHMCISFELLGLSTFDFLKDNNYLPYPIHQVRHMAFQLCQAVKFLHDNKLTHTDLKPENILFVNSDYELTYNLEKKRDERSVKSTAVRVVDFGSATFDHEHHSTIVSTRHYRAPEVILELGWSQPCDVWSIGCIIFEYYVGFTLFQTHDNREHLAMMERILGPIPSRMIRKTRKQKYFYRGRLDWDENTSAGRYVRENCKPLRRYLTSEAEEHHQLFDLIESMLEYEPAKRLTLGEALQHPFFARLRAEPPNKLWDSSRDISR
Chain of PKCβ1 (P05771 whole entry): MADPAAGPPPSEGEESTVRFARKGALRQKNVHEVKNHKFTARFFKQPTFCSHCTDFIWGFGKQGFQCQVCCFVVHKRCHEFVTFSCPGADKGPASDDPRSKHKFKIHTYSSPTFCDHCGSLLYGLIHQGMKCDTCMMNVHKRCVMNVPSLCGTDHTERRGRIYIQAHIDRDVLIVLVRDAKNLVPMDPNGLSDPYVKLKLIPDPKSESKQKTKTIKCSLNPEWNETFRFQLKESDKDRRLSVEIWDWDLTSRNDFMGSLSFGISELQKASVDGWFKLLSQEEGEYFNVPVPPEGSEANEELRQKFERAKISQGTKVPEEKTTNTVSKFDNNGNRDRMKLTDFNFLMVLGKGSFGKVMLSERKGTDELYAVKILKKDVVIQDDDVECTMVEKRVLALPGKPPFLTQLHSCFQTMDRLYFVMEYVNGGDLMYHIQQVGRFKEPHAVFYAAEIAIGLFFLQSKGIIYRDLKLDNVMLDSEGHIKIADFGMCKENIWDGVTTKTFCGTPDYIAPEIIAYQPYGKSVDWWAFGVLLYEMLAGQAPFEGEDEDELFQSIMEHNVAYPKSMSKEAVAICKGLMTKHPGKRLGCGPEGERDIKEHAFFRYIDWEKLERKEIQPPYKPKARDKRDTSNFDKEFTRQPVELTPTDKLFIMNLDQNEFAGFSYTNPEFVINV

One may read the TGI as the reduction of tumour growth relative to the control group. As a reminder, the inhibition is the change of the read-out against control, counted positive when it falls. In the case of `Cn1ncc(Cl)c1-c1cc(C(=O)N[C@H](CN)Cc2ccc(F)c(F)c2)oc1Cl` [GSK2141795], the “effect on cell cycle” value is listed as “G1 arrest” with BT474 cells, “dose dependant increase in G1 cellular arrest” in the data set with I9.2 cells, “concentration-dependent increase in cells within the sub-G1 phase” in the data set with LNCaP cells and “dose dependant increase in G1 cellular arrest” in the data set on A3 cells. Besides, the TGI with CAPAN-2 tumor xenografts was 26%; with HPAC tumor xenografts it was 31%. The “IC50 (nM) / EC50, FOXO_GFP translocation” value in data set [1] was 47 nM and 47 ± 37 nM. For the same compound, the inhibition at 0.5 µM at PKBβ(h) (0.5 µM) was 95%; against CLK2(h) (0.5 µM), 58%; against CLK3(h) (0.5 µM), 2%; at TSSK1(h) (0.5 µM, read-out: % Inhibition) it was 21%; at Abl(m) (0.5 µM, read-out: % Inhibition) it was 1%; on PKBα(h) (0.5 µM), 99%. At PKBγ(h) (0.5 µM), the inhibition at 0.5 µM was 98%. Moreover, the inhibition at 10 µM stood at 99% against PKBβ(h) (10 µM); 94% against CLK2(h) (10 µM); 59% on CLK3(h) (10 µM); 83% on TSSK1(h) (10 µM, read-out: % Inhibition); 7% at Abl(m) (10 µM, read-out: % Inhibition); 99% on PKBα(h) (10 µM). Further, on PKBγ(h) (10 µM), the inhibition at 10 µM came to 98%. In addition, the blood concentrations in data set [2] (30 mg/kg QDx7, time course, maintained for 8 h) is 2000 to 3000 nM. In addition, the concentration at 2 h in data set [2] (SCID, mouse, whole blood, 30 mg/kg QDx7 oral, 2 h post last dose) is roughly 3000 nM. For the same compound, the “clinical activity, single agent” value in the data set on cancer patients is “partial response and stable disease”.
The IC50 is the concentration that gives 50% inhibition. As for `Cn1ncc(Cl)c1-c1cc(C(=O)N[C@H](CN)Cc2cccc(F)c2)sc1Cl` [GSK2110183], the results for the inhibition at 0.5 µM on TSSK1(h) and on Abl(m) were 16% and 8%, respectively. Besides, the inhibition at 10 µM on TSSK1(h) was 84%; against Abl(m), -5%. Besides, the IC50 on PKCβ1 was 430 nM; at PKCβ2, greater than 1000 nM.
